Measurements from US10874743B2, “IRAK degraders and uses thereof” (Kymera Therapeutics, Inc., priority 2017, dated 2020).

Target: T1, IRAK4 (Homo sapiens, UniProt Q9NWZ3)
T1 sequence (Q9NWZ3 1-460): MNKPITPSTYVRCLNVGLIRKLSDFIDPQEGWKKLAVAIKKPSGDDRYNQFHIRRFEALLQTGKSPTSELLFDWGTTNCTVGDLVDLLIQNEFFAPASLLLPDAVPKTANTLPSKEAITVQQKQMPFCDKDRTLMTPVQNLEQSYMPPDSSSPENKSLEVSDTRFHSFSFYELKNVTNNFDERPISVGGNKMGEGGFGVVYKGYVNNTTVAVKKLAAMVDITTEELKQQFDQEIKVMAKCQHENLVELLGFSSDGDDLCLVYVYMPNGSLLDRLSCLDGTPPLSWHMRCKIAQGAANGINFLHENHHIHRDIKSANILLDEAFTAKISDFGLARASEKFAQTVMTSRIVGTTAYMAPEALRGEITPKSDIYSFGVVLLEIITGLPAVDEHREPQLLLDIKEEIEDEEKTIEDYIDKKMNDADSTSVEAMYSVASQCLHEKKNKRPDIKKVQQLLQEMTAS
Test: OCI-LY-10 degradation assay (western blot, % IRAK4 degraded after 4 hours)
Format: cell-based
Set-up: endogenous in cells; host or cells: OCI-LY10
Conditions: OCI-LY10 cells; for OCI-LY10 % IRAK4 Degradation (0.01 uM) / OCI-LY10 % IRAK4 Degradation (0.1 uM) / OCI-LY10 % IRAK4 Degradation (1 uM): 4 hours; for OCI-LY10 % IRAK4 Degradation (0.01 uM): 0.01 uM compound; for OCI-LY10 % IRAK4 Degradation (0.1 uM): 0.1 uM compound; for OCI-LY10 % IRAK4 Degradation (1 uM): 1 uM compound; for OCI-LY10 % IRAK4 Degradation: IRAK4 degraded after 4 hours, western blot
Description: Compounds were reconstituted in DMSO to make stock solutions at concentration of 60 mM. THP-1 and OCI-LY10 cells were maintained in RPMI-1640 medium containing 10% FBS, 0.5 μM 2-ME or 20% FBS, 55 μM 2-ME, and 1% L-Glutamine respectively.
Cells were seeded into 6-well plates with 5e6 cells per well. 200 μL of diluted compounds were added to cells to the final concentration of 0.003-10 μM. After 4 or 24 hour-incubation at 37° C., cells were collected into 2 mL Eppendorf tubes and centrifuged at 1,000 rpm for 5 min. The cell pellets were washed with 1×DPBS once and resuspended in 60 μL lysis buffer. The cells were lysed on ice for 10 min, then centrifuged at 14,000 rpm for 10 min at 4° C. and the supernatants were collected for western blots. For THP-1 cells, the lysis buffer contained 40 mM pH 7.4 HEPES, 140 mM NaCl, 2.5 mM EDTA, 1% NP-40, 0.1% SDS, and protease inhibitor cocktail (Roche, Cat. No. 05892791001). For OCI-LY10 cells, RIPAbuffer (Thermo Fisher, 89900) with Halt Protease and Phosphatase Inhibitor Cocktail (Thermo Fisher, 78446) was applied.
The protein concentration of cell lysates was quantified with Pierce™ BCA Protein Assay Kit (Pierce, 23227). Albumin standards at different concentrations were prepared, involving 2,000 ug/mL, 1,500 ug/mL, 1,000 ug/mL, 750 ug/mL, 500 ug/mL, 250 ug/mL, 125 ug/mL, and 25 ug/mL. BCA working reagents were prepared by mixing BCA reagent A with reagent B in 50:1 ratio. 200 μL of the BCA working reagents were added to 25 μL of BCA standard or cell lysates in microplate, and mixed thoroughly on a plate shaker for 30 seconds. After incubation at 37° C. for 30 min, the absorbance of samples at 562 nm were measured with EnVision Plate Reader.
Protein lysates were prepared in NuPAGE™ LDS sample buffer and NuPAGE™ sample reducing agent, and incubated at 95° C. for 5 min. For western blots, 20-25 μg of total proteins were resolved in 4-12% Bis-Tris gels (Introgen, WG1403A) or 10% Bis-Tris Midi gels (Invitrogen, WG1202BOX) running with 1×MOPS SDS running buffer (Invitrogen, NP0001) or 1×MES SDS running buffer (Invitrogen, NP0002). The proteins were transferred to low fluorescence PVDF membranes using the Trans-Blot Turbo Transfer System. Membranes were then blocked in Odyssey blocking buffer at RT for 1 h followed by primary incubation at 4° C. overnight. The primary antibodies were IRAK1 rabbit monoclonal antibody (CST, #4504S, 1:500), IRAK3 rabbit polyclonal antibody (CST, #4369, 1:500), IRAK4 rabbit polyclonal antibody (CST, #4363S, 1:1,000), MyD88 rabbit monoclonal antibody (Abcam, Ab133739, 1:2,000), j3-actin mouse monoclonal antibody (Sigma, A5441, 10,000), and Gapdh mouse monoclonal antibody (Millipore, MAB374, 1:5,000). Membranes were washed three times with 1×TBST, and then incubated with IR Dye 800 CW Goat anti-rabbit (Licor, #926-32211) and IR Dye 700 CW Goat anti-mouse (Licor, #926-68070) secondary antibodies in 1:10,000 dilution at RT for 1 h. The western blot images were obtained using Odyssey Imaging System.
OCI-LY-10 results at 4 hours. The letter codes indicate the percentage of IRAK4 degraded after 4 hours: A (>50% degradation), B (>20-50% degradation) and C (<20% degradation)
OCI-LY-10 results at 4 hours. The letter codes for % IRAK4 degradation indicate the percentage of IRAK4 degraded after 4 hours across three different concentrations: A (>50% degradation), B (>20-50% degradation) and C (<20% degradation).

Structure (SMILES) | OCI-LY10 % IRAK4 Degradation (0.01 uM) | OCI-LY10 % IRAK4 Degradation (0.1 uM) | OCI-LY10 % IRAK4 Degradation (1 uM) | OCI-LY10 % IRAK4 Degradation
CN(CCCCCCCCCc1cccc2c1C(=O)N(C1CCC(=O)NC1=O)C2=O)Cc1ccc(-n2cc(NC(=O)c3coc(-c4ccnc(NCC5CC5)c4)n3)c(C(N)=O)n2)cc1 (stereo not shown) [I-316] | B (>20-50% degradation) | B (>20-50% degradation) | B (>20-50% degradation) | –
NC(=O)c1nn(-c2ccc(CNCCOCCOCCCc3cccc4c3CN(C3CCC(=O)NC3=O)C4=O)cc2)cc1NC(=O)c1coc(-c2ccnc(NCC3CC3)c2)n1 (stereo not shown) [I-324] | B (>20-50% degradation) | A (>50% degradation) | B (>20-50% degradation) | –
NC(=O)c1nn(-c2ccc(CNCCOCCOCCOCCOCCCc3cccc4c3C(=O)N(C3CCC(=O)NC3=O)C4=O)cc2)cc1NC(=O)c1coc(-c2ccnc(NCC(F)(F)F)c2)n1 (stereo not shown) [I-322] | C (<20% degradation) | C (<20% degradation) | A (>50% degradation) | –
CN(CCOCCCc1cccc2c1C(=O)N(C1CCC(=O)NC1=O)C2=O)Cc1ccc(-n2cc(NC(=O)c3coc(-c4ccnc(NCC5CC5)c4)n3)c(C(F)F)n2)cc1 (stereo not shown) [I-362] | C (<20% degradation) | B (>20-50% degradation) | A (>50% degradation) | –
NC(=O)c1nn(-c2ccc(C(=O)NCC#CC#CCCNc3cccc4c3C(=O)N(C3CCC(=O)NC3=O)C4=O)cc2)cc1NC(=O)c1coc(-c2ccnc(NCC(F)(F)F)c2)n1 (stereo not shown) [I-178, N-[3-carbamoyl-1-[4-[7-[[2-(2,6-dioxo-3-piperidyl)-1,3-dioxo-isoindolin-4-yl]amino]hepta-2,4-diynylcarbamoyl]phenyl]pyrazol-4-yl]-2-[2-(2,2,2-trifluoroethylamino)-4-pyridyl]oxazole-4-carboxamide] | – | – | – | C (<20% degradation)
CC(C)(OCCOCCNc1cccc2c1C(=O)N(C1CCC(=O)NC1=O)C2=O)C(F)CNC(=O)c1cnc(-n2ncc3cc(C#N)cnc32)cc1NC1CC1 (stereo not shown) [I-79] | – | – | – | C (<20% degradation)
O=C1CCC(N2C(=O)c3cccc(NC4CN(CCOCCOCCNCc5ccc(-n6cc(NC(=O)c7coc(-c8ccnc(NCC9CC9)c8)n7)c(C(F)F)n6)cc5)C4)c3C2=O)C(=O)N1 (stereo not shown) [I-338] | C (<20% degradation) | B (>20-50% degradation) | B (>20-50% degradation) | –
N#Cc1cnc2c(cnn2-c2cc(NC3CC3)c(C(=O)N[C@H]3C[C@H](C(=O)NCCOCCOCCOCCOCCNc4cccc5c4C(=O)N(C4CCC(=O)NC4=O)C5=O)C3)cn2)c1 (stereo partly shown) [I-21, 6-(5-cyano-1H-pyrazolo[3,4-b]pyridin-1-yl)-4-(cyclopropylamino)-N-((1r,3r)-3-((14-((2-(2,6-dioxopiperidin-3-yl)-1,3-dioxoisoindolin-4-yl)amino)-3,6,9,12-tetraoxatetradecyl)carbamoyl)cyclobutyl)nicotinamide] | – | – | – | C (<20% degradation)
CN(CCCc1cccc2c1C(=O)N(C1CCC(=O)NC1=O)C2=O)Cc1ccc(-n2cc(NC(=O)c3coc(-c4ccncc4)n3)c(C(F)F)n2)cc1 (stereo not shown) [I-365] | C (<20% degradation) | C (<20% degradation) | C (<20% degradation) | –
NC(=O)[C@@H](O)C[C@H]1CCc2sc3ncnc(OC4CCC(N5CCN(C(=O)COCCOCCOCCOCCNc6cccc7c6C(=O)N(C6CCC(=O)NC6=O)C7=O)CC5)CC4)c3c21 (stereo partly drawn) [I-161, (2S)-3-[(8R)-1-[4-[4-[2-[2-[2-[2-[2-[[2-(2,6-dioxo-3-piperidyl)-1,3-dioxo-isoindolin-4-yl]amino]ethoxy]ethoxy]ethoxy]ethoxy]acetyl]piperazin-1-yl]cyclohexoxy]-7,8-dihydro-6H-cyclopenta[4,5]thieno[1,2-c]pyrimidin-8-yl]-2-hydroxy-propanamide] | – | – | – | C (<20% degradation)
NC(=O)c1nn(C2CN(CCOCCOCCOCCNc3cccc4c3C(=O)N(C3CCC(=O)NC3=O)C4=O)C2)cc1NC(=O)c1coc(-c2ccnc(NCC(F)(F)F)c2)n1 (stereo not shown) [I-169, N-[3-carbamoyl-1-[1-[2-[2-[2-[2-[[2-(2,6-dioxo-3-piperidyl)-1,3-dioxo-isoindolin-4-yl]amino]ethoxy]ethoxy]ethoxy]ethyl]azetidin-3-yl]pyrazol-4-yl]-2-[2-(2,2,2-trifluoroethylamino)-4-pyridyl]oxazole-4-carboxamide] | – | – | – | C (<20% degradation)
O=C1CCC(N2C(=O)c3cccc(NCCOCCOCCN4Cc5ccc(-n6cc(NC(=O)c7coc(-c8ccnc(NCC9CC9)c8)n7)c(C(F)(F)F)n6)cc5C4)c3C2=O)C(=O)N1 (stereo not shown) [I-426, 2-[2-(Cyclopropylmethylamino)-4-pyridyl]-N-[1-[2-[2-[2-[2-[[2-(2,6-dioxo-3-piperidyl)-1,3-dioxo-isoindolin-4-yl]amino]ethoxy]ethoxy]ethyl]isoindolin-5-yl]-3-(trifluoromethyl)pyrazol-4-yl]oxazole-4-carboxamide] | C (<20% degradation) | C (<20% degradation) | C (<20% degradation) | –
O=C1CCC(N2C(=O)c3ccc(OCc4cn(CCOCCOCCNCc5ccc(-n6cc(NC(=O)c7coc(-c8ccnc(NCC9CC9)c8)n7)c(C(F)F)n6)cc5)nn4)cc3C2=O)C(=O)N1 (stereo not shown) [I-345] | C (<20% degradation) | A (>50% degradation) | A (>50% degradation) | –
CC(C)(OCCOCCOCCNc1cccc2c1C(=O)N(C1CCC(=O)NC1=O)C2=O)C(F)CNC(=O)c1cnc(Nc2ccc3ncsc3c2)cc1NC1CC1 (stereo not shown) [I-65] | – | – | – | C (<20% degradation)
CC(OCCOCCOCCOCCOCCNc1cccc2c1C(=O)N(C1CCC(=O)NC1=O)C2=O)C(F)CNC(=O)c1cnc(-n2ncc3cc(C#N)cnc32)cc1NC1CC1 (stereo not shown) [I-66] | – | – | – | C (<20% degradation)
